According to patent publication US8058263B2, “Substituted 2-phenyl-pyridine derivatives” (Actelion Pharmaceuticals Ltd, priority 2008, dated 2011):

The compounds below were run against T1, human P2Y12 receptor (Homo sapiens, UniProt Q9H244) (assay: P2Y12 receptor binding assay). Conditions: CHO cells with recombinant expression of the human P2Y12 receptor; tritium-labeled 2-methyl-S-ADP; 2 hours at RT.
T1 construct: expressed in transfected cells; host or cells: Chinese Hamster Ovary (CHO) cells
Procedure: P2Y12 Receptor Binding Assay
Chinese Hamster Ovary (CHO) cells with recombinant expression of the human P2Y12 receptor were cultured in 24 well cell-culture plates. Cells were washed three times with binding buffer (50 mM Tris pH 7.4, 100 mM NaCl, 1 mM EDTA, 0.5% BSA). The cells were then incubated with 0.5 mL per well binding buffer containing tritium-labeled 2-methyl-thio-adenosine 5′-diphosphate (2-methyl-S-ADP) (between 100,000 and 300,000 dpm per well) and various concentrations of test compounds. After incubation at RT for 2 hours, cells were washed three times with binding buffer. Then, cells were solubilized by addition of 0.5 mL solubilization buffer (SDS, NaOH, EDTA). The content of each well was then transferred into beta-counter vials and 2.0 ml of Ultima Gold Scintillation liquid was added.

T1 sequence (Q9H244 whole entry): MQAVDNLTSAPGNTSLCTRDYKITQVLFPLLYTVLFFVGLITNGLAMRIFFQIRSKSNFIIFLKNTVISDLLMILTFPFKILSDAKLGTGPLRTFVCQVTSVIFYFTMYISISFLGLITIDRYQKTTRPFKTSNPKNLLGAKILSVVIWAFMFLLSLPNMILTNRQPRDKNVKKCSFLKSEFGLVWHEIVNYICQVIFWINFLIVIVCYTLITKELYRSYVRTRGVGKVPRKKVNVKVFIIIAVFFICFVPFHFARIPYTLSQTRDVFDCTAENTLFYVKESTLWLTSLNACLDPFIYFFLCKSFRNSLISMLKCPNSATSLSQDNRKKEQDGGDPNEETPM

Structure (SMILES)	IC50
CCOC(=O)N1CCN(C(=O)[C@H](Cc2ccc(P(=O)(O)O)cc2)NC(=O)c2cc(N3CC[C@H](OC)C3)cc(-c3ccccc3)n2)CC1 [Example 24, 4-[(S)-2-{[4-((S)-3-methoxy-pyrrolidin-1-yl)-6-phenyl-pyridine-2-carbonyl]-amino}-3-(4-phosphono-phenyl)-propionyl]-piperazine-1-carboxylic acid ethyl ester]	1 nM
CCCCOC(=O)N1CCN(C(=O)[C@H](CP(=O)(O)O)NC(=O)c2cc(-c3ccccc3)cc(-c3ccc(F)cc3)n2)CC1 [Example 17, 4-((R)-2-{[6-(4-fluoro-phenyl)-4-phenyl-pyridine-2-carbonyl]-amino}-3-phosphono-propionyl)-piperazine-1-carboxylic acid butyl ester]	19 nM
CCCCOC(=O)N1CCN(C(=O)[C@H](CP(=O)(OCOC(C)=O)OCOC(C)=O)NC(=O)c2cc(N3CC[C@H](OC)C3)cc(-c3ccccc3)n2)CC1 [Example 39, 4-((R)-3-(Bis-acetoxymethoxy-phosphoryl)-2-{[4-((S)-3-methoxy-pyrrolidin-1-yl)-6-phenyl-pyridine-2-carbonyl]-amino}-propionyl)-piperazine-1-carboxylic acid butyl ester]	3 nM
CCCCOC(=O)N1CCN(C(=O)[C@H](CP(=O)(O)O)NC(=O)c2cc([C@H]3C[C@@H]3CO)cc(-c3ccccc3)n2)CC1 [Example 20, 4-((R)-2-{[4-((1S,2S)-2-hydroxymethyl-cyclopropyl)-6-phenyl-pyridine-2-carbonyl]-amino}-3-phosphono-propionyl)-piperazine-1-carboxylic acid butyl ester]	5 nM
CCCCOC(=O)N1CCN(C(=O)[C@@H](CCCP(=O)(O)O)NC(=O)c2cc(N3CC[C@H](OC)C3)cc(-c3ccccc3)n2)CC1 [Example 14, 4-((R)-2-{[4-((S)-3-methoxy-pyrrolidin-1-yl)-6-phenyl-pyridine-2-carbonyl]-amino}-5-phosphono-pentanoyl)-piperazine-1-carboxylic acid butyl ester]	30 nM
CCCCOC(=O)N1CCN(C(=O)C(NC(=O)c2cc(N3CC[C@H](OC)C3)cc(-c3ccccc3)n2)P(=O)(O)O)CC1 (stereo partly drawn) [Example 12, 4-(-2-{[4-((S)-3-methoxy-pyrrolidin-1-yl)-6-phenyl-pyridine-2-carbonyl]-amino}-2-phosphono-acetyl)-piperazine-1-carboxylic acid butyl ester]	186 nM
CCCCOC(=O)N1CCN(C(=O)[C@H](CP(=O)(O)O)NC(=O)c2cc(OCCOC)cc(-c3ccccc3)n2)CC1 [Example 36, 4-((R)-2-{[4-(2-methoxy-ethoxy)-6-phenyl-pyridine-2-carbonyl]-amino}-3-phosphono-propionyl)-piperazine-1-carboxylic acid butyl ester]	2 nM
CCCCOC(=O)N1CCN(C(=O)[C@H](CP(=O)(O)O)NC(=O)c2cc(NC3CC3)cc(-c3ccccc3)n2)CC1 [Example 31, 4-{(R)-2-[(4-cyclopropylamino-6-phenyl-pyridine-2-carbonyl)-amino]-3-phosphono-propionyl}-piperazine-1-carboxylic acid butyl ester]	4 nM
